Structures can show the parent of a compound that is named as a salt.
Test system: E. coli strain LFP 527
Experiment: Mouse UTI model, pooled CFU results of Examples 7 and 8 (Example 9)
Assay type: in vivo, Escherichia coli in mice (Mus musculus)
Conditions: for # samples <LOD / Mean log CFU/g: ciprofloxacin IV 5 mg/kg; for Delta from LR: ciprofloxacin IV compared with intravenous LR
Protocol: The crPhage cocktail was a mixture of phages p0033L-10 (ATCC No. PTA-126316), p004k-5 (ATCC No. PTA-126319), and p0071-16 (ATCC No. PTA-126320) at concentrations of 2×10^11 plaque forming units (PFU)/mL/phage (“high”), 2×10^9 PFU/mL/phage (“medium”), or 2×10^7 PFU/mL/phage (“low”). A 50 μl dose thus provided 1×10^10 PFU/phage (“high”), 1×10^8 PFU/phage (“medium”), or 1×10^6 PFU/phage (“low”). Lactated Ringer's (LR) solution served as a negative control and ciprofloxacin (Cipro) served as a positive control.
Female C3H/HeN mice were infected with E. coli strain LFP 527 via intraurethral (IU) instillation. Beginning 48 hours after infection, a test article of phage cocktail containing p0033L-10, p004k-5, and p0071-16 was administered at time zero and every 12 hours for 48 hours (for a total of 5 doses). Phage cocktail with a range of phage concentrations (Table 16) or vehicle was delivered either intravenously (IV) or by IU instillation into the bladder. The phage cocktails were prepared using LR.

`O=C(O)c1cn(C2CC2)c2cc(N3CCNCC3)c(F)cc2c1=O` [ciprofloxacin, Ciprofloxacin hydrochloride] was tested, and the “# samples <LOD” value (Bladder, 54 hours) was 0, the “Mean log CFU/g” value (Bladder, 54 hours) was 4.96 log CFU/g and the “Delta from LR” value (Bladder, 54 hours) was −1.55 (n.s.) log CFU/g. The “# samples <LOD” value (Bladder, 102 hours) was 1, the “Mean log CFU/g” value (Bladder, 102 hours) was 3.16 log CFU/g and the “Delta from LR” value (Bladder, 102 hours) was −2.23 (p = 0.0033) log CFU/g. The “# samples <LOD” value (Kidney, 54 hours) was 0, the “Mean log CFU/g” value (Kidney, 54 hours) was 3.47 log CFU/g and the “Delta from LR” value (Kidney, 54 hours) was −1.66 (n.s.) log CFU/g. For the same compound, the “# samples <LOD” value (Kidney, 102 hours) was 3, the “Mean log CFU/g” value (Kidney, 102 hours) was 2.03 log CFU/g and the “Delta from LR” value (Kidney, 102 hours) was −3.11 (p <0.0001) log CFU/g.

Reference: US20220411782A1, “PHAGE COMPOSITIONS COMPRISING CRISPR-CAS SYSTEMS AND METHODS OF USE THEREOF” (priority 2019, published 2022)
